Measured values reported in patent publication US20060040884A1, “Antisense oligonucleotides directed to genes regulated by trapoxin-induced HDAC inhibition” (priority 2001, published 2006).
Square brackets hold non-standard residues; d marks the D form. Peptide text beside a SMILES is read from it. ξ: configuration not given here. Aoe(9ξ) = N[C@@H](CCCCCC(=O)C1CO1)C(=O)O; dPip = O=C(O)[C@H]1CCCCN1

Experiments:
H1299 cells = assay: Northern blot analysis of transcripts in TPX-treated H1299 cells; assay type: cell-based, human
Description: Northern Blotting. […] RNA is separated by electrophoresis on denaturing agarose gels and transferred to nylon membranes. Membranes are hybridized with random hexanucleotide-primed ^32P-labeled DNA fragments that are prepared from the RhoB gene, using standard protocols.
A subset of genes on Incyte cDNA arrays that were differentially expressed in response to HDAC inhibition by TPX treatment were analyzed using Northern blot analyses to confirm that the level of these transcripts changed in response to HDAC inhibition. Total RNA that was isolated from TPX-treated H1299 cells for 0, 6 and 18 h was hybridized with probes that were prepared from sequences of 8 differentially expressed transcripts, including G9 sialidase, IPP isomerase, p21^waf1, Interferon γ-inducible IP-30 (GILT), Hsp 70, urokinase plasminogen activator receptor, and KIAA0797. Although there were differences in the absolute changes in transcript levels that were determined by Northern analysis versus the arrays, the directional trend in the differential expression in response to TPX was confirmed for all of the genes tested.
[…] RNA is separated by electrophoresis on denaturing agarose gels and transferred to nylon membranes. […]
Total RNA is isolated from H1299 cells treated for 6 h with 30 nM TPX or DMSO using Trizol reagent (Life Technologies). The RNA samples are analyzed by Northern blots using conventional methods. […]

p21waf1 = assay: Immunoblot detection of p21waf1 protein induction in response to trapoxin A; assay type: cell-based, human; details: H1299 cells, 48 h
Description: Detection of p21^waf1 and RhoB protein induction in response to trapoxin A treatment. […] Whole lysates are prepared in triple detergent lysis buffer (50 mM Tris, pH 8, 150 mM NaCl, 0.02% NaN3, 0.1% SDS, 1% Nonidet P-40, 0.5% sodium deoxycholate, 100 μg/ml phenylmethylsulfonyl fluoride, 1 μg/ml aprotinin) and proteins are separated by SDS-polyacrylamide electrophoresis, electrophoretically transferred to nitrocellulose membranes, and incubated with anti-p21^waf1 (BD Pharmingen, San Jose, Calif.) or anti-RhoB (Santa Cruz Biotechnologies, Santa Cruz Calif.). Immunoreactive proteins are visualized using ECL chemiluminescence system (Amersham Pharmacia Biotech., Piscataway, N.J.).

RhoB promoter = RhoB promoter luciferase reporter assay in transfected H1299 cells treated with TPX

With `O=C(CCCCC[C@@H]1NC(=O)[C@H]2CCCCN2C(=O)[C@H](Cc2ccccc2)NC(=O)[C@H](Cc2ccccc2)NC1=O)C1CO1` (stereo partly drawn) [TPX, Trapoxin A] (cyclo(FF[dPip][Aoe(9ξ)])) the “RhoB mRNA level (Northern analysis)” value (H1299 cells; 30 nM, 6 h) was “up-regulated”, the “Directional trend in differential expression vs arrays (Northern; G9 sialidase, IPP isomerase, p21waf1, IP-30, Hsp 70, UpaR, KIAA0797)” value (H1299 cells; TPX 0, 6 and 18 h) was “confirmed” and the “TPX-induced p21waf1 expression (Western blotting)” value (p21waf1) was “decreased”. The “Induction of luciferase activity driven by the RhoB promoter” value (RhoB promoter; 30 nM TPX 24 h, normalized to DMSO) was “about 10 fold”, the “Effect of insertion of three nucleotides (AAA) between CCAAT and TATA boxes on TPX induction” value (RhoB promoter; 30 nM TPX vs 0.1% DMSO, 24 h) was “no effect” and the “Induction of RhoB promoter 5′ deletion constructs (luciferase activity)” value (RhoB promoter; all constructs generated) was “induced by TPX to a similar extent”.
